The values below come from ChEMBL document CHEMBL5291721, “A preclinical secondary pharmacology resource illuminates target-adverse drug reaction associations of marketed drugs” (Nat Commun, 2023).

Molecules are shown by their SMILES. Where only a bound is given, the exact number is not on record here.

The target of experiment [1] is 5-hydroxytryptamine receptor 2B (Homo sapiens, UniProt P41595). The class given is functional, cell-based.
Experiment [2] deals with Sodium-dependent noradrenaline transporter (Homo sapiens, UniProt P23975).
For experiment [3], the target named is T1, Neuropeptide Y receptor type 1 (Homo sapiens, UniProt P25929).
T1 sequence (P25929 whole entry): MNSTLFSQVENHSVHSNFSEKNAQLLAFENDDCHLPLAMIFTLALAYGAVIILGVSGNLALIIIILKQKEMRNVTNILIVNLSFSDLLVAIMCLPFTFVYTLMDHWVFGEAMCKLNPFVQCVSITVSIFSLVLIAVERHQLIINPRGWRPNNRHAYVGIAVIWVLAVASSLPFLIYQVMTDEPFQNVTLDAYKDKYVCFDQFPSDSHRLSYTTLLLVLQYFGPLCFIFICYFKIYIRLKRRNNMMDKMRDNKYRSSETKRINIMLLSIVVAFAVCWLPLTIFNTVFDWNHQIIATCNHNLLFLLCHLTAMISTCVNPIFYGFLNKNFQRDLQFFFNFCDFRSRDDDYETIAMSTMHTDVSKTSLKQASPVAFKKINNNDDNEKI

Experiment [4] addresses T2, 5-hydroxytryptamine receptor 3A (Homo sapiens, UniProt P46098).
T2 sequence (P46098 whole entry): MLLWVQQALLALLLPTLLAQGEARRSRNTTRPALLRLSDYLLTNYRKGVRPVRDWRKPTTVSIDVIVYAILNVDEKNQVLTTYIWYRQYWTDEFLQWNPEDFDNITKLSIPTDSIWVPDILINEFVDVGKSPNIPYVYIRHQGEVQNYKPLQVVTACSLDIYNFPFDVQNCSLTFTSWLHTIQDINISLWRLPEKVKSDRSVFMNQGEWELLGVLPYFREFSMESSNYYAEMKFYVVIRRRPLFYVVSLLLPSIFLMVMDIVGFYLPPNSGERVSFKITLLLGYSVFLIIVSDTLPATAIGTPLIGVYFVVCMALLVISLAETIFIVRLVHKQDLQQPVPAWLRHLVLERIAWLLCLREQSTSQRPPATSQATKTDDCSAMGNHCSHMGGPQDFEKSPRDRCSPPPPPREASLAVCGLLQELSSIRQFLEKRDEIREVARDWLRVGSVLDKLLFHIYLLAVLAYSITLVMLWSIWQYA
The class given is functional.

Experiment [5] addresses cGMP-inhibited 3',5'-cyclic phosphodiesterase 3A (Homo sapiens, UniProt Q14432). The format is functional.
The target in experiment [6] is T3, Prostaglandin G/H synthase 1 (Rattus norvegicus, UniProt Q63921).
T3 sequence (Q63921 whole entry): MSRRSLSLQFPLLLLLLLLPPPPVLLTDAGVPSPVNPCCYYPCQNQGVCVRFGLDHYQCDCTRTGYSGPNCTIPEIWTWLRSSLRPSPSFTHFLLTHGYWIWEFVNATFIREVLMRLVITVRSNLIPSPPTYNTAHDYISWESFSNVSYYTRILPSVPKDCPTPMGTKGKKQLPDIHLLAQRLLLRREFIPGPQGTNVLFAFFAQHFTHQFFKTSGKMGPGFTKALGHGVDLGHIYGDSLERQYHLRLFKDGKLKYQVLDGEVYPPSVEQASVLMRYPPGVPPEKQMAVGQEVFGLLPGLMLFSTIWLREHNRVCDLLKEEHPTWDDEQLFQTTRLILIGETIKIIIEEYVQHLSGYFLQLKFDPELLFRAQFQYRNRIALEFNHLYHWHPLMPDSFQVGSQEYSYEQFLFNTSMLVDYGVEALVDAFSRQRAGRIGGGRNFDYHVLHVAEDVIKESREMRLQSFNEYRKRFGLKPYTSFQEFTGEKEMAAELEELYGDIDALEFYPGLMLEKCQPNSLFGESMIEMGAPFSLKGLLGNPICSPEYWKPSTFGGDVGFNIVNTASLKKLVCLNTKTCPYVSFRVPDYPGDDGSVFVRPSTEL
The format is functional.

The target in experiment [7] is Voltage-dependent L-type calcium channel subunit alpha-1C (Rattus norvegicus, UniProt P22002). The format is functional.
The target in experiment [8] is T4, Muscarinic acetylcholine receptor M2 (Homo sapiens, UniProt P08172).
T4 sequence (P08172 whole entry): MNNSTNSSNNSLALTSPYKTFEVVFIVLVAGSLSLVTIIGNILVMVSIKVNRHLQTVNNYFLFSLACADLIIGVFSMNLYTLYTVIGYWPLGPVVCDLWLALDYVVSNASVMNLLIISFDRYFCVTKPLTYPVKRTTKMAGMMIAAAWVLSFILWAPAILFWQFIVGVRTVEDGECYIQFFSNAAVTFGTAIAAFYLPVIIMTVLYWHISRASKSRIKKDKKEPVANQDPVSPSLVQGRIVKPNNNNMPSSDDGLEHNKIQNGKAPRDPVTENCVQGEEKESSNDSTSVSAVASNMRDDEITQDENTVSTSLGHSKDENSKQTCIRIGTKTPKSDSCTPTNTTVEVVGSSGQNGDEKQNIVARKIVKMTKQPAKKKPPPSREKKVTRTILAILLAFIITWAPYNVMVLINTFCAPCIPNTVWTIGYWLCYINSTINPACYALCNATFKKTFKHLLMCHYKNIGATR
The format is functional, cell-based.

For experiment [9], the target named is Kappa-type opioid receptor (Homo sapiens, UniProt P41145).
Further: assay procedure not described here.

Sequence of Voltage-dependent L-type calcium channel subunit alpha-1C (P22002 whole entry): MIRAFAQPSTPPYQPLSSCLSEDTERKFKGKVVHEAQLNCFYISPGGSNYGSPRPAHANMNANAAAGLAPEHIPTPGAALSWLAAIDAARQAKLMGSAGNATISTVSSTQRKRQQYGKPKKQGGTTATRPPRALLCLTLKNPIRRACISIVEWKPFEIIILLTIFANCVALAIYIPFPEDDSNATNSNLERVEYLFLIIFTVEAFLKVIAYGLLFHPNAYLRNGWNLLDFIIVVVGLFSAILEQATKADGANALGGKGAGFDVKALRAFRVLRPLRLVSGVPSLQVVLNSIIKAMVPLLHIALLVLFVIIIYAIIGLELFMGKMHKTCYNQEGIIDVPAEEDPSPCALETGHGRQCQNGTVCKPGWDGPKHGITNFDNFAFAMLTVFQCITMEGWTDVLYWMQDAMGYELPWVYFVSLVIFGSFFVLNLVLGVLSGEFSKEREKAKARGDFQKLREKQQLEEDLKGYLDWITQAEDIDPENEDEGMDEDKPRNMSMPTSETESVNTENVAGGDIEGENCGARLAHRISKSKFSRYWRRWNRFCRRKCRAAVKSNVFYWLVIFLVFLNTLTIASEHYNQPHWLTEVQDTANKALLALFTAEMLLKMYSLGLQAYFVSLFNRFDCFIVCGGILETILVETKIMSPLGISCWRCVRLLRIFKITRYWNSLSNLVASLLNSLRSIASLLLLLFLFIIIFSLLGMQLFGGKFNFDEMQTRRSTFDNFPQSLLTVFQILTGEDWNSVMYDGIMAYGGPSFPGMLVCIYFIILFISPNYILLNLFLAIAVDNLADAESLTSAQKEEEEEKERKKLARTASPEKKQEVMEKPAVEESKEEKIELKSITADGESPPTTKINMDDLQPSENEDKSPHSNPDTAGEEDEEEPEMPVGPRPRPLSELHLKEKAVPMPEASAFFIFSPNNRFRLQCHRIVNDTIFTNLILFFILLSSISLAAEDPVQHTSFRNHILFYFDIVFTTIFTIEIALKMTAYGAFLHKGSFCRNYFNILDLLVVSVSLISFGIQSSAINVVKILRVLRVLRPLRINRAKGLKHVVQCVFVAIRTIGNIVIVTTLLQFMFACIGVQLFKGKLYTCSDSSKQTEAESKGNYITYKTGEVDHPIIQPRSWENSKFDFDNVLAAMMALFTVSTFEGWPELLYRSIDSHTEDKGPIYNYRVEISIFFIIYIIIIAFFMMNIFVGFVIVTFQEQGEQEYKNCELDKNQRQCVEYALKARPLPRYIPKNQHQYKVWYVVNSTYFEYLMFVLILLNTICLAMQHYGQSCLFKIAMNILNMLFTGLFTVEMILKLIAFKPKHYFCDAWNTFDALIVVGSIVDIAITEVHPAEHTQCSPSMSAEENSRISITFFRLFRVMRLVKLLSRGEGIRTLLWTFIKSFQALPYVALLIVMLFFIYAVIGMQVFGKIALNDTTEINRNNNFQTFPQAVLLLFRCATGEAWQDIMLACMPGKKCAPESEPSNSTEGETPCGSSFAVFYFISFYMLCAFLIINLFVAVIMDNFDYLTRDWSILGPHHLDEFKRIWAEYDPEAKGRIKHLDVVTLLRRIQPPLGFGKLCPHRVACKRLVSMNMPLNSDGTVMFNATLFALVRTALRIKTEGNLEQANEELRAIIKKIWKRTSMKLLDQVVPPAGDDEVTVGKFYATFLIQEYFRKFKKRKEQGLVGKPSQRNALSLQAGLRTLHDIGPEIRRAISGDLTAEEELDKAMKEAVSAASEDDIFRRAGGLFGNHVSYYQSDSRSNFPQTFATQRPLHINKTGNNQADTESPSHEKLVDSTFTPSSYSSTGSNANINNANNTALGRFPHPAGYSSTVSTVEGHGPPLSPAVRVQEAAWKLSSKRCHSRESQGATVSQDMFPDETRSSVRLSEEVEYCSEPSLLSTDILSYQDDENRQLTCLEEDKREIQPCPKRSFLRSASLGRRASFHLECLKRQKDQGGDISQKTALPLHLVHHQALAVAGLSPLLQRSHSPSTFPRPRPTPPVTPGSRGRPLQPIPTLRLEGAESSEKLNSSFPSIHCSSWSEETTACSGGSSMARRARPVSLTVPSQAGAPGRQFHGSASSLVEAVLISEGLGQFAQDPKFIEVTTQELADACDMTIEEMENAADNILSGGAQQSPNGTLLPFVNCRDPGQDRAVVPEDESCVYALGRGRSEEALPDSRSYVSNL
Sequence of 5-hydroxytryptamine receptor 2B (P41595 whole entry): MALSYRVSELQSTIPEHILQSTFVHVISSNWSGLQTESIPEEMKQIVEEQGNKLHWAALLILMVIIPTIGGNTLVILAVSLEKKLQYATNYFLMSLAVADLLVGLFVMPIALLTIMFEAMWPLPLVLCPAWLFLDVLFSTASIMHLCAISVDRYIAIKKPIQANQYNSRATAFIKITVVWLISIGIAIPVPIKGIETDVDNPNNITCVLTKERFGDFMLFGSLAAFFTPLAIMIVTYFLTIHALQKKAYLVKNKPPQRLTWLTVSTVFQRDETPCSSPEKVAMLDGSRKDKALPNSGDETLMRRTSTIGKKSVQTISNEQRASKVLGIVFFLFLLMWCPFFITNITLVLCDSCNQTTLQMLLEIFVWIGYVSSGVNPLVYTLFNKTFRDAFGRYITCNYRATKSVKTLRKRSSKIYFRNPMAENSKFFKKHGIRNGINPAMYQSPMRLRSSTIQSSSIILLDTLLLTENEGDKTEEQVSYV
Sequence of Sodium-dependent noradrenaline transporter (P23975 whole entry): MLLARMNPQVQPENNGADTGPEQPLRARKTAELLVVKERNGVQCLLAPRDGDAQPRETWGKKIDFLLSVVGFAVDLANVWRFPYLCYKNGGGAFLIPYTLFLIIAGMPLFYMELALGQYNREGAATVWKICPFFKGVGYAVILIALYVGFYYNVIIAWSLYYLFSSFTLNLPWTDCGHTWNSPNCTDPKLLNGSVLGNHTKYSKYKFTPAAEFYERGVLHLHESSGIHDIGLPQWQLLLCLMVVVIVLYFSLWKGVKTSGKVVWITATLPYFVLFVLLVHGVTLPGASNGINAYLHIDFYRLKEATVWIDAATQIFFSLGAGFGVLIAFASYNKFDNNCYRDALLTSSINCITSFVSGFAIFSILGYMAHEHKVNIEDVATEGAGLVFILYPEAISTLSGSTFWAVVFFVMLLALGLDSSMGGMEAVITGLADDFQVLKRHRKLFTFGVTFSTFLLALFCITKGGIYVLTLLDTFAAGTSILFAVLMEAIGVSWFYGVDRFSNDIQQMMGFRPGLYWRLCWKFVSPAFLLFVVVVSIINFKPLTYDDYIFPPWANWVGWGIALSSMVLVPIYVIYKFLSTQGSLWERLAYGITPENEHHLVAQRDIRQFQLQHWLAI
Sequence of Kappa-type opioid receptor (P41145 whole entry): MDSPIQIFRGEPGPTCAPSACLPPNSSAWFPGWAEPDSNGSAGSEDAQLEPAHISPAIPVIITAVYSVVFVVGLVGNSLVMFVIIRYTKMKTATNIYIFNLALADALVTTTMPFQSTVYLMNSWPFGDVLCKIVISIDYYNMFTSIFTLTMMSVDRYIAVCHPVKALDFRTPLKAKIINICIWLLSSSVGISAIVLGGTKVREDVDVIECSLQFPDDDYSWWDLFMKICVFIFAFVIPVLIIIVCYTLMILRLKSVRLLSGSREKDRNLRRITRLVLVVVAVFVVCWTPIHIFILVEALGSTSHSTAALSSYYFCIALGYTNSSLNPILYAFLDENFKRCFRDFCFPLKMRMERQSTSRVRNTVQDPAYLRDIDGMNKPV
Sequence of cGMP-inhibited 3',5'-cyclic phosphodiesterase 3A (Q14432 whole entry): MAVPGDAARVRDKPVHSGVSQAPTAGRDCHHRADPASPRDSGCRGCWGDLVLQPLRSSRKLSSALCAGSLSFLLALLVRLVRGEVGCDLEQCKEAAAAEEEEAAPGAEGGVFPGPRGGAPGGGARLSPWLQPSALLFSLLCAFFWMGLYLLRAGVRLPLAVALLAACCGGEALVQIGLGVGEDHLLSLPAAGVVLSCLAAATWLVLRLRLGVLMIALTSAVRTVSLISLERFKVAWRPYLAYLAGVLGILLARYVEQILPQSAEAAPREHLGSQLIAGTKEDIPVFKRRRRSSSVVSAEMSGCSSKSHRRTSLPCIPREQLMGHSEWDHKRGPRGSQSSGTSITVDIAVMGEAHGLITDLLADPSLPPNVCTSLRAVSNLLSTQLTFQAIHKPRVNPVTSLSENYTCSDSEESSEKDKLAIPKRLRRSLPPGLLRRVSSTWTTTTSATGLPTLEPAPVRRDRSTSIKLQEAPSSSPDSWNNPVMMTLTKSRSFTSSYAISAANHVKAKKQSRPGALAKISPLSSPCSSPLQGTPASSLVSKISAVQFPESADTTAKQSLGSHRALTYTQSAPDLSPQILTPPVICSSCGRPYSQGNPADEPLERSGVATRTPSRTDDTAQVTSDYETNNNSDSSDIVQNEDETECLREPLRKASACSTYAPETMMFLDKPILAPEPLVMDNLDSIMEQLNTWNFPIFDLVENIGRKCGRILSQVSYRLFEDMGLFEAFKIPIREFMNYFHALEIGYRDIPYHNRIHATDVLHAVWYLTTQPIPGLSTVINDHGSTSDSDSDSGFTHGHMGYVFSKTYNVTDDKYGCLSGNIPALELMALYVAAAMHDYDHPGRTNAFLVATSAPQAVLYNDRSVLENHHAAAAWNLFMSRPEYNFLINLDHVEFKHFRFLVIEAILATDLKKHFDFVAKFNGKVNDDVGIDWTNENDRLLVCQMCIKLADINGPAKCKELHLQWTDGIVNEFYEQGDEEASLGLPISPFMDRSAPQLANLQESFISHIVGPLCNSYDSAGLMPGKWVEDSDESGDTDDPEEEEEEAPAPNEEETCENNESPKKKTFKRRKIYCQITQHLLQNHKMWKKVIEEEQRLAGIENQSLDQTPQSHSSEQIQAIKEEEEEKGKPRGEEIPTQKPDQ

Consider `C=C[C@@]1(C)CC(=O)[C@]2(O)[C@@]3(C)[C@@H](O)CCC(C)(C)[C@@H]3[C@H](OC(=O)CCN(C)C)[C@H](OC(C)=O)[C@@]2(C)O1`, for which the AC50 in [1], in experiment [2], in experiment [3], in experiment [4], in experiment [5] and in experiment [6] was over 30 µM in each case. Moreover, the AC50 in [7], in experiment [8] and in [9] was over 30 µM throughout.

For the molecule `Nc1ccc(C(=O)O)c(O)c1` [AMINOSALICYLIC ACID], the AC50 in experiment [1], in experiment [2], in [3], in [4], in experiment [5] and in [6] was over 30 µM in each case. Moreover, the AC50 in [8] and in experiment [9] was over 30 µM in each case.

On to `CC(=O)OCC(=O)[C@@]1(O)CC[C@H]2[C@@H]3CCC4=CC(=O)CC[C@]4(C)C3=CC[C@@]21C` [ANECORTAVE ACETATE], for which the AC50 in experiment [1] is over 10 µM; in [2], over 10 µM; in experiment [3], over 10 µM; in experiment [4] it was over 30 µM; in experiment [5], over 30 µM; in experiment [6], over 10 µM. Moreover, the AC50 in [7], in experiment [8] and in [9] was over 10 µM throughout.

Regarding `C=CC1=C(C(=O)O)N2C(=O)[C@@H](NC(=O)/C(=N\OCC(=O)O)c3csc(N)n3)[C@H]2SC1` [CEFIXIME], the AC50 in experiment [2], in experiment [3], in experiment [5], in experiment [6] and in [8] was over 30 µM in each case.

On to `COc1cccc2c1C(=O)c1c(O)c3c(c(O)c1C2=O)C[C@@](O)(C(C)=O)C[C@@H]3O[C@H]1C[C@H](N)[C@H](O)[C@H](C)O1` [DAUNORUBICIN], for which the AC50 is 10.4 µM in experiment [2]; over 10 µM in experiment [3]; 12.8 µM in [4]; over 30 µM in [5]; over 30 µM in experiment [6]; over 30 µM in experiment [7]. This molecule also gave an AC50 in experiment [9] of over 30 µM.

For `C[C@@H]1C[C@H]2[C@@H]3C[C@H](F)C4=CC(=O)C=C[C@]4(C)[C@@]3(F)[C@@H](O)C[C@]2(C)[C@H]1C(=O)CO` [DIFLUCORTOLONE], the half-maximal activity concentration (AC50) in experiment [1] is 18 µM; in experiment [2] it was over 30 µM; in experiment [5], over 30 µM; in experiment [6], over 30 µM.

For `Clc1ccc(C(Cn2ccnc2)OCc2ccc(Sc3ccccc3)cc2)c(Cl)c1` (configuration not stated) [FENTICONAZOLE], the AC50 in experiment [1] was over 30 µM; in experiment [3], 30 µM; in [4], over 30 µM; in experiment [5], over 30 µM; in experiment [6], 30 µM; in [7], 12 µM. The AC50 in [8] was over 30 µM; in experiment [9], 2.5 µM.

With `CC#CCn1c(N2CCC[C@@H](N)C2)nc2c1c(=O)n(Cc1nc(C)c3ccccc3n1)c(=O)n2C` [LINAGLIPTIN], the AC50 was over 10 µM in experiment [1]; over 30 µM in [2]; over 30 µM in experiment [3]; over 30 µM in [4]; over 30 µM in experiment [5]; over 30 µM in experiment [6]. Further, the AC50 in experiment [7] and in experiment [9] was over 10 µM throughout.

With `CCOC(=O)Nc1ccc2c(c1)N(C(=O)CCN1CCOCC1)c1ccccc1S2` [MORICIZINE], the AC50 in experiment [1], in [2], in experiment [3], in experiment [4], in [5] and in experiment [6] was over 30 µM each time. The AC50 in experiment [8] and in [9] was over 30 µM throughout.

Regarding `CCN(CC)CC(=O)Oc1ccc(NC(C)=O)cc1` [PROPACETAMOL], the AC50 in experiment [1], in [2], in experiment [3], in experiment [4], in [5] and in experiment [7] was over 30 µM throughout. The results for the AC50 in experiment [8] and in experiment [9] were over 30 µM and 18 µM, respectively.

`Cc1ccc2c(-c3ccccc3)nc(=O)n(C(C)C)c2c1` [PROQUAZONE]: the AC50 in [2] was over 30 µM; in experiment [3], over 30 µM; in experiment [4] it was over 30 µM; in [5], over 30 µM; in [6] it was 0.2 µM; in experiment [8], over 30 µM. The molecule further gave an AC50 in experiment [9] of over 30 µM.

Take `Cc1cc2nc3c(=O)[nH]c(=O)nc-3n(C[C@H](O)[C@H](O)[C@H](O)COP(=O)(O)O)c2cc1C` [RIBOFLAVIN 5'-PHOSPHATE]: the AC50 in experiment [2] was over 30 µM; in [3] it was over 30 µM; in experiment [4] it was over 30 µM; in experiment [5], over 30 µM; in experiment [6], 0.9 µM; in [7] it was 15 µM. Further, the half-maximal activity concentration (AC50) in experiment [9] is over 30 µM.

`CN1CCN(c2c(F)cc3c(=O)c(C(=O)O)cn4c3c2SCC4)CC1` [RUFLOXACIN]: the AC50 in experiment [3], in experiment [4], in experiment [5], in experiment [6], in experiment [8] and in experiment [9] was over 30 µM each time.

With `COc1cc2nccc(Oc3ccc(NC(=O)Nc4cc(C)on4)c(Cl)c3)c2cc1OC` [TIVOZANIB], the half-maximal activity concentration (AC50) is over 3 µM in experiment [2], 16 µM in experiment [5], over 3 µM in experiment [6] and over 30 µM in experiment [8].

Regarding `CN1[C@@H]2CC[C@H]1C[C@@H](OC(=O)c1c[nH]c3ccccc13)C2` [TROPISETRON], the AC50 in experiment [1] was 15 µM; in experiment [3] it was over 30 µM; in experiment [5], over 30 µM; in [6], over 30 µM; in [7] it was over 30 µM; in experiment [8] it was over 30 µM. The AC50 in experiment [9] is over 30 µM.

Take `COc1cc2c(Nc3ccc(Br)cc3F)ncnc2cc1OCC1CCN(C)CC1` [VANDETANIB]: the concentration at half-maximal activity (AC50) in experiment [1] is 14 µM; in experiment [2], over 30 µM; in experiment [3], over 30 µM; in experiment [4], over 30 µM; in experiment [5], over 30 µM; in [6], over 30 µM. For the same molecule, the AC50 in [8] was 21 µM; in experiment [9], over 30 µM.

As for `COc1ccc(C(CN(C)C)C2(O)CCCCC2)cc1` (configuration not stated) [VENLAFAXINE], the AC50 in experiment [3] is over 30 µM; in [4] it was over 30 µM; in [5], over 10 µM; in experiment [6] it was over 30 µM; in experiment [8] it was over 10 µM; in [9], over 10 µM.

As for `N#C[C@@H]1CCCN1C(=O)CNC12CC3CC(CC(O)(C3)C1)C2` [VILDAGLIPTIN], the concentration at half-maximal activity (AC50) in [1], in [2], in [3], in experiment [4], in experiment [5] and in experiment [6] was over 30 µM in each case. Moreover, the AC50 in [8] and in [9] was over 30 µM in each case.
